Assay results: patent US12414937B2, “Local and regional anesthesia and analgesia” (UNIVERSITY OF LOUISVILLE RESEARCH FOUNDATION, INC., priority 2015, dated 2025)

Experiments:
pseudocholinesterase = biological target: T1, pseudocholinesterase (Homo sapiens, UniProt P06276); settings: plasma; cited from earlier work
T1 construct: hydrolyzed at the ester linkage in plasma by pseudocholinesterase; host or cells: plasma

[1] = test system: sensory axons (Dorsal Root); test: Compound action potential (CAP) conduction block, sensory CAP recorded at dorsal root, drug applied to lumbar plexus exposure; assay type: in vivo, rats
Text: (§1) A surgical preparation was used to determine whether Atip acts differently on sensory or motor neurons. The procedures used were similar to those described in Petruska et al., 1998 (Experimental Brain Research 121:379-390). Briefly, adult rats received general anesthesia with ketamine/xylazine. The jugular vein, carotid artery, and trachea were intubated for the purposes of administering supplementary anesthesia, monitoring of blood pressure, and measuring end-expired CO2, respectively. Normal body temperature was maintained within 1° C. via a water-based thermal blanket. […]
(§2) Compound action potentials (CAPs) were generated by stimulating the sciatic nerve branches. The CAPs propagated centrally through the lumbar plexus to the dorsal and ventral roots where the sensory and motor CAPs (sCAP and mCAP) were detected with the recording electrodes. Effectiveness of conduction block was assessed by measuring the properties of the CAPs (peak and area) conducted through the lumbar plexus exposure and treated with drug compared to the CAPs in the control condition (vehicle or saline in the lumbar plexus exposure).
(§3) With reference to FIG. 2B, activity in response to electrical stimulation of the peroneal nerve was recorded from sensory and motor fascicles (20-30 sweeps averaged per time point). […]

[2] = test system: motor axons (Ventral Root); test: Compound action potential (CAP) conduction block, motor CAP recorded at ventral root, drug applied to lumbar plexus exposure; assay type: in vivo, rats; settings: Atip applied to the nerve; FIGS. 2A-3B together
Text: as §1, §2, §3

sensory axons = test: Sensory CAP recordings with IV-administered Atip after Dex; assay type: in vivo, rats; settings: doses indicated for use as α-2 AR antagonist
small sensory axons = test: Nociceptive cutaneous trunk muscle reflex (CTMR) EMG on electrical stimulation of a treated sensory nerve; assay type: in vivo, rats; settings: sensory nerve treated with Atip 20 ul, 200 uM
Method: To address this, a different model system was used the cutaneous trunk muscle reflex (CTMR), which was previously developed and validated for use in anesthesiology and pain experimentation (4,5).
With reference to FIG. 3B, the effects of Atip on nociceptor sensory conduction are assessed using nociceptive CTM reflex as readout.
The CTMR in rats appears as a puckering or flicking of the back skin and is elicited only by noxious natural stimulation or by electrical stimulation of sufficient strength to recruit A-delta and C-fibers (4,6,7). Activation of only very few of these sensory axons is sufficient to elicit a CTMR, making the system a “natural amplifier” for small-diameter afferent input and resulting in reflex output detectible at the EMG and behavioral level (4,8).

[3] = test system: isolated human DRG Neurons; test: Live cell calcium imaging with electric field stimulation; assay type: cell-based
Method: Live cell calcium imaging studies were conducted on isolated human DRG Neurons from post mortem donors. Cells were loaded with 3 uM Fluo 8-AM (AAT Bioquest 21081) containing 0.1% Pluronic F-127 (Sigma P2443) for 20 min. The extracellular solution contained in mM (Sigma): 145 NaCl (S3014), 3 KCl (P3911), 2 CaCl2) (C3881), 1 MgCl2 (M9272), 10 HEPES (H3375), 10 glucose (G5767) adjusted to pH 7.4 with NaOH (72068). Fluo-8-loaded cells were excited at 480 nm and emission was collected at 520 nm with a pcoEDGE sCMOS camera (PCO) mounted on an inverted microscope (Olympus IX71).
For Electric Field stimulation (EFs), images were acquired at 100 Hz for 2.5 sec applying simultaneously a train of 10 pulses (5 Hz, 10 ms). After the recording of the baseline profile at Low (1.5 to 2.0 V) and High (2.5 to 3.0 V) Voltage, a pre incubation of […] of the inhibitor is applied to the well before repeating the EFs procedure (Atip 100 uM, Atip 300 uM, Lidocaine 200 uM (Sigma L7757)). The cells that had less than 50% of the pulse response vs the baseline condition was considered inhibited. A washout of 10 min by perfusion was performed after the last EFs procedure.
Lidocaine was first prepared in stock solution using Ethanol (Sigma 459844), Atip was prepared in stock solution using DMSO (Sigma D8418). Image acquisition and data analysis were performed using MetaMorph software (Molecular Devices).
Neurons with less than 50% of the baseline response to electrical field stimulation were considered inhibited. 300 uM Atip blocked activity in 100% of the cells; 100 uM Atip achieved a 62% blockade.

hTCEpi cells = test: Cytotoxicity, Alamar Blue cell viability assay; assay type: cell-based, human; settings: 24 or 48 hours incubation
Method: Cytotoxicity studies were performed using Human telomerase-immortalized human corneal epithelial cells (hTCEpi cells—obtained through Genon Corp., Menlo Park, CA, USA). The cells were plated at a density of 30,000 cells per well of a 96-well dish in growth media (Defined Keratinocyte Media with growth supplement, Invitrogen, Grand Island, NY, USA). After 24 hours of recovery, cells were treated with either growth media alone or growth media supplemented with 0.5% DMSO (vehicle), the indicated concentration of ATIP, or 0.5% proparacaine (Akorn, Forest Lake, IL). Cells were incubated for 24 or 48 hours at 37° C. in 5% CO2. Cell viability was assessed using an Alamar Blue Assay (Thermo Fisher, Waltham, MA, USA).
With reference to FIGS. 5A and 5B, data are plotted as the fraction of viable cells compared to growth media alone+/−S.E.M (n=3).

[4] = test system: injury-sensitized dissociated rat sensory neurons; test: Patch-clamp electrophysiology, action potentials induced by depolarizing current; assay type: cell-based
Method: Studies were conducted to examine the effect of Atip administration on action potentials induced by depolarizing current. Electrophysiology in injury-sensitized dissociated rat sensory neurons was recorded with patch-clamp, using methods previously described (5).

[5] = test system: wild type, α2AAR knockout and α2CAR knock out mice; test: Paw withdrawal in response to strong pinch after subcutaneous plantar injection; assay type: in vivo; settings: 5 mM subcutaneously in right plantar paw
Method: Studies testing the effect of Atip were also conducted in α2 receptor subunit knock-out mice. α2AAR knockout and α2CAR knock out mice were used in the study. Animals were injected with 5 mM Atip subcutaneously in their right plantar paw, and vehicle into the left plantar paw. They then received strong pinch to the paw skin and pads on each foot. Right and left paw withdrawal in response to the pinch was assessed.

T1 sequence (P06276 29-602): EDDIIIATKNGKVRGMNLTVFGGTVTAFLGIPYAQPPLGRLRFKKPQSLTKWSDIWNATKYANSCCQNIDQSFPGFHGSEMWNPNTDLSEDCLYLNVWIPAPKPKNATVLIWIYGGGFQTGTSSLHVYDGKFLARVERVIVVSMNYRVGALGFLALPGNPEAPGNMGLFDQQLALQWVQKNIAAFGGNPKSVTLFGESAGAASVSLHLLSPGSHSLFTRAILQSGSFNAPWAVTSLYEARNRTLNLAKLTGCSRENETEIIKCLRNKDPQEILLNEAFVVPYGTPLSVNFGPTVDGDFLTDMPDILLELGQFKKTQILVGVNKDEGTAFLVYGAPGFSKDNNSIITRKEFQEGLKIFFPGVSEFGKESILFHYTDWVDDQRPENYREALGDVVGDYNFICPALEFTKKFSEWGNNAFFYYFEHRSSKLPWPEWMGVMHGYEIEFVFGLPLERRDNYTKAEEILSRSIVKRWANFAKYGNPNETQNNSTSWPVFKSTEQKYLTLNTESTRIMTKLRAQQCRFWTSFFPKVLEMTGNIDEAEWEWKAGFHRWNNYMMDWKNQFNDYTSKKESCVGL

Compound: CCN(CC)CCOC(=O)c1ccc(N)cc1Cl [2-chloroprocaine]
- rate of hydrolysis at the ester linkage, relative (pseudocholinesterase): about four times faster than procaine

Compound: CCC1(c2cnc[nH]2)Cc2ccccc2C1 [Atip, 4(5)-(2,3-dihydro-2-ethyl-1H-inden-2-yl)imidazole]
- reversibility of conduction block (CAP peak and area) ([1]; 100 ul Atip undiluted clinical dose 5 mg/ml topically over the nerve, then wash-out): reversible
- conduction in large and small sensory axons ([1]; Atip applied to the nerve, FIGS. 2A-3B together): strongly blocks conduction
- conduction in motor axons [2]: relative sparing of conduction
- sensory conduction block by IV-administered Atip (sensory axons): does not itself block conduction
- EMG of CTMR, nociceptor sensory conduction (small sensory axons): blocks activity in small sensory axons
- nerve toxicity (return of EMG) (small sensory axons; not washed out): does not poison the nerve
- cells with blocked activity (less than 50% of baseline response to electrical field stimulation) ([3]; 100 uM): 62%
- cells with blocked activity (less than 50% of baseline response to electrical field stimulation) ([3]; 300 uM): 100%
- toxicity (fraction of viable cells compared to growth media alone) versus 0.5% proparacaine (hTCEpi cells): reduced toxicity
- action potentials induced by depolarizing current [4]: rapidly blocked
- resting membrane potential [4]: does not alter the resting membrane potential
- withdrawal of the Atip-injected right paw on pinch ([5]; wild type mice): no withdrawal of the right paw
- withdrawal of the Atip-injected right paw on pinch ([5]; α2AAR knockout mice): no withdrawal of the right paw
- withdrawal of the Atip-injected right paw on pinch ([5]; α2CAR knock out mice): no withdrawal of the right paw

Compound: CCN(CC)CC(=O)Nc1c(C)cccc1C [lidocaine, Lidocaine]
- efficacy of blockade compared with Atip ([3]; 200 uM, therapeutic concentration): less efficacious than the highest tested concentration of Atip, and similar to the lowest concentration of Atip tested

Compound: CCN(CC)CCOC(=O)c1ccc(N)cc1 [procaine]
- rate of hydrolysis at the ester linkage, relative (pseudocholinesterase): about four times faster than tetracaine
